The record followed here is patent US20250145592A1 (NICO Therapeutics, Inc., priority 2022, published 2025).

In this test the test system is IL-1β secretion in THP-1 cells (NLRP3). Description: IL-1β secretion assay in PMA-differentiated THP-1 cells stimulated with LPS and nigericin (ELISA readout). The test is classed as cell-based. As to conditions: Homo sapiens, IL-1β ELISA. As to the method:
Compounds as provided herein were tested in the following assay. Cell culture medium employed contained RPMI 1640 medium (89%), FBS (10%), Pen/Strep (1%), and 2-mercaptoethanol (0.05 mM). Freezing medium was made up of 90% FBS and 10% DMSO. THP-1 cells were removed from the liquid nitrogen and placed into a 37° C. water bath to thaw, until signs of ice dissipated. The cells were then added to 9 mL of warm cell culture medium and centrifuged for 5 minutes at 1000 rpm. The supernatant was discarded, and the cells were resuspended in new cell culture medium. THP-1 cells were then split and cultured in the cell culture medium, being passaged every 2-3 days with the cell density will be maintained between 5×10^5 and 1.5×10^6 viable cells/mL.
To freeze, cells were resuspended with fresh freezing medium, adjusting the cell density to 5×10^6 cells/mL. The cell suspension was partitioned into 1 mL aliquots per vial, and the vials were transferred to a −80° C. freezer. After one day at −80° C., the cell vials were transferred to liquid nitrogen freezer for storage.
PMA was dissolved in DMSO to make a stock solution at 5 mg/ml and stored in 10 μl aliquots at −20° C. for single use. PMA is added to normal growth medium. LPS was diluted with 1 mL of water solution to provide a 1 mg/mL stock solution and stored in 15 μl aliquots at −20° C. for single use. Nigericin is diluted in ice cold 100% ethanol to 5 mg/ml (6.7 mM) and stored in 75 μL aliquots at −20° C. for single use. Serum-free media contains RPMI 1640 medium (99%), Pen/Strep (1%), and 2-mercaptoethanol (0.05 mM). The two control conditions used to qualify and normalize test compound dose-response curves were as follows: High Control=25 ng/mL LPS, […], 0.5% DMSO, Low Control=25 ng/mL, LPS, 0.5% DMSO.
THP-1 cells were diluted to provide a suspension at a concentration of 1.0×10^6 cells/mL with the total volume of suspension required to enable the desired number of assay plates. The growth media was supplemented with PMA (5 ng/mL final concentration) and the cells were incubated at 37° C. under a humidified atmosphere of 5% CO2 for 40 h.
All media was carefully aspirated from each culture flask. The cells were washed carefully with 1×DPBS. The cells were then briefly digested with trypsin LE for 5 minutes at 23° C. and immediately resuspended in cell growth media. After resuspension, the cells were centrifuged at 1000 rpm for 3 minutes and the supernatant was discarded. The cells were resuspended in DPBS and once again centrifuged at 1000 rpm for 5 minutes. The supernatant was discarded and the cell pellet was resuspended in serum-free media supplemented with LPS (25 ng/mL final concentration) to enable the distribution of 30K THP-1 cells within 45 μL of media into each well of 384-well PDL-coated plates. The 384-well plates were then incubated at 37° C. under a humidified atmosphere of 5% CO2 for 2 h. Following this period, test compounds were dispensed by Tecan across the desired concentration range with all wells normalized to a final 0.5% DMSO concentration. The plates were then then incubated at 37° C. under a humidified atmosphere of 5% CO2 for 1 h. Following this period, 5 μL of the 5 mg/mL nigericin stock solution was added to each of the appropriate wells and plates were centrifuged at 1000 rpm for 30 seconds. The plates were the immediately reintroduced to the incubator at 37° C. under a humidified atmosphere of 5% CO2 for 2 h. After this time, 35 μL/well of supernatant was collected and transferred into v-bottom plate and centrifuged at 1000 rpm for 1 minute. These supernatant aliquots were analyzed using an IL-Iβ detection kit as described below. If needed, the test samples could be snap frozen and stored at −80° C. until analyzed.
To prepare each ELISA plate, capture antibody (mAb Mt175) was diluted with PBS to a final concentration of […] and then 20 µL of this solution was added to each well of the ELISA plate.
Each plate was allowed to incubate overnight at 4° C. […]
On the technique in general: An ELISA detects its analyte on a solid surface through an enzyme-linked reagent.

Where [1] appears, read: THP-1, Table 3, LPS 25 ng/mL + nigericin, read-out: Activity (IC50 class).
The mark [2] stands for this setting: THP-1, Table 4, LPS 25 ng/mL + nigericin, read-out: Activity (IC50).

As usually defined, the IC50 is the midpoint of a concentration-inhibition curve.

SMILES strings stand for the structures. Like-named read-outs stand apart in the source and are kept apart here.

Turning to `Cc1cnc(NC(=O)Cn2nc(OC3CC3)c3cc(Br)ccc3c2=O)nn1` [Example 38, 2-(6-bromo-4-cyclopropyloxy-1-oxophthalazin-2-yl)-N-(6-methyl-1,2,4-triazin-3-yl)acetamide], the IC50 by setting is: under setting [1], < 1000 nM; under setting [2], 444 nM.

In the case of `O=C(Cn1nc(OC2CC2)c2cc(C3CCC3)ccc2c1=O)Nc1ncc(F)cn1` [Example 39, 2-(6-cyclobutyl-4-cyclopropyloxy-1-oxophthalazin-2-yl)-N-(5-fluoropyrimidin-2-yl)acetamide], the IC50 by setting is: under setting [1], 1000 to 10000 nM; under setting [2], 1120 nM.

In the case of `O=C(Cn1nc(OC2CC3(CCC3)C2)c2cc(Br)ccc2c1=O)Nc1ncc(F)cn1` [Example 40, 2-(6-bromo-1-oxo-4-spiro[3.3]heptan-2-yloxyphthalazin-2-yl)-N-(5-fluoropyrimidin-2-yl)acetamide], the IC50 is, setting by setting: under setting [1], < 1000 nM; under setting [2], 17 nM.

For `O=C(Cn1nc(OC2CC3(CC3)C2)c2cc(Br)ccc2c1=O)Nc1ncc(Cl)cn1` [Example 41, 2-(6-bromo-1-oxo-4-spiro[2.3]hexan-5-yloxyphthalazin-2-yl)-N-(5-chloropyrimidin-2-yl)acetamide], the concentration for half-maximal inhibition (IC50) reads like this: under setting [1], < 1000 nM; under setting [2], 52 nM.

Take `O=C(Cn1nc(OC2CC(C(F)(F)F)C2)c2cc(Br)ccc2c1=O)Nc1ncc(F)cn1` (stereo not shown) [Example 42, 2-[6-bromo-1-oxo-4-[3-(trifluoromethyl)cyclobutyl]oxyphthalazin-2-yl]-N-(5-fluoropyrimidin-2-yl)acetamide]: the IC50 is, setting by setting: under setting [1], < 1000 nM; under setting [2], 360 nM.

Take `COC1(C(F)(F)F)CC(Oc2nn(CC(=O)Nc3ncc(F)cn3)c(=O)c3ccc(Br)cc23)C1` (stereo not shown) [Example 43]: the IC50 is, setting by setting: under setting [1], < 1000 nM; under setting [2], 447 nM.

Consider `O=C(Cn1nc(O[C@H]2C[C@@H](F)C2)c2cc(Br)ccc2c1=O)Nc1ncc(F)cn1` [Example 44, 2-[6-bromo-4-(cis-3-fluorocyclobutyl)oxy-1-oxophthalazin-2-yl]-N-(5-fluoropyrimidin-2-yl)acetamide], for which the IC50 is, setting by setting: under setting [1], < 1000 nM; under setting [2], 492 nM.

In the case of `O=C(Cn1nc(O[C@H]2C[C@H](F)C2)c2cc(Br)ccc2c1=O)Nc1ncc(F)cn1` [Example 45, 2-[6-bromo-4-(trans-3-fluorocyclobutyl)oxy-1-oxophthalazin-2-yl]-N-(5-fluoropyrimidin-2-yl)acetamide], the half-maximal inhibitory concentration (IC50) under setting [1] is < 1000 nM and the half-inhibitory concentration (IC50) under setting [2] came to 912 nM.

Consider `O=C(Cn1nc(OC2CC3CC[C@@H]2C3)c2cc(Br)ccc2c1=O)Nc1ncc(F)cn1` (stereo partly shown) [Example 46, 2-[4-[[(1r,2r,4s)-2-bicyclo[2.2.1]heptanyl]oxy]-6-bromo-1-oxophthalazin-2-y1]-N-(5-fluoropyrimidin-2-yl)acetamide], for which the IC50 is < 1000 nM under setting [1] and 862 nM under setting [2].

For the compound `O=C(Cn1nc(OCCF)c2cc(Br)ccc2c1=O)Nc1ncc(F)cn1` [Example 47, 2-[6-bromo-4-(2-fluoroethoxy)-1-oxophthalazin-2-yl]-N-(5-fluoropyrimidin-2-yl)acetamide], the IC50 was 1000 to 10000 nM under setting [1] and 1400 nM under setting [2].

On to `O=C(Cn1nc(OCC(F)F)c2cc(Br)ccc2c1=O)Nc1ncc(F)cn1` [Example 48, 2-[6-bromo-4-(2,2-difluoroethoxy)-1-oxophthalazin-2-yl]-N-(5-fluoropyrimidin-2-yl)acetamide], for which the IC50 under setting [1] is < 1000 nM and the IC50 under setting [2] stood at 568 nM.

For `O=C(Cn1nc(OC2CC(F)(F)C2)c2cc(Br)ccc2c1=O)Nc1ncc(F)cn1` [Example 49, 2-[6-bromo-4-(3,3-difluorocyclobutyl)oxy-1-oxophthalazin-2-yl]-N-(5-fluoropyrimidin-2-yl)acetamide], the IC50 runs as follows: under setting [1], 1000 to 10000 nM; under setting [2], 1510 nM.

Regarding `O=C(Cn1nc(OCC2CC2)c2cc(Br)ccc2c1=O)Nc1ncc(F)cn1` [Example 50, 2-[6-bromo-4-(cyclopropylmethoxy)-1-oxophthalazin-2-yl]-N-(5-fluoropyrimidin-2-yl)acetamide], the IC50 is < 1000 nM under setting [1] and 343 nM under setting [2].

Consider `O=C(Cn1nc(OC2C[C@@H]2F)c2cc(Br)ccc2c1=O)Nc1ncc(F)cn1` (stereo partly drawn) [Example 53, 2-[6-bromo-4-[2-trans-fluorocyclopropyl]oxy-1-oxophthalazin-2-yl]-N-(5-fluoropyrimidin-2-yl)acetamide], for which the IC50 under setting [2] worked out at 389 nM.

In the case of `O=C(Cn1nc(OC2C[C@H]2F)c2cc(Br)ccc2c1=O)Nc1ncc(F)cn1` (stereo partly drawn) [Example 54, 2-[6-bromo-4-[2-cis-fluorocyclopropyl]oxy-1-oxophthalazin-2-yl]-N-(5-fluoropyrimidin-2-yl)acetamide], under setting [2], the IC50 turned out to be 490 nM.
